Source: ChEMBL document CHEMBL3885861, “Open TG-GATES”

Organism: Rattus norvegicus
Assay: Open TG-GATES - Regimen: Single
Assay type: toxicity, organism-based, Sprague-Dawley
Set-up: regimen Single, gender Male, age 6 weeks
Details: in vivo, po, 0 mg/kg, route gavage, dose level Control; for APTT / Bas / Eos / Fbg / Hb / Ht / Lym / MCH / MCHC / MCV / Mono / Neu / PT / Plat / RBC / Ret / WBC: tissue Blood; for KIDNEY_L / KIDNEY_R / KIDNEY_TOTAL: tissue Kidney; for LIVER: tissue Liver; for A/G / ALP / ALT / AST / BUN / CRE / Ca / Cl / DBIL / GLC / IP / K / LDH / Na / PL / RALB / TBIL / TC / TG / TP / gamma-GTP: tissue Plasma

CCc1oc2ccccc2c1C(=O)c1cc(I)c(O)c(I)c1 [BENZIODARONE] gave a TERMINAL_BW (3 h) of 211.5 g, an APTT (3 h) of 16.8 s and a Bas (3 h) of 0%. It also gave an Eos (3 h) of 0.4%, a Fbg (3 h) of 205.2 mg/dL and a Hb (3 h) of 13.7 g/dL. It also gave a Ht (3 h) of 40.7%, a Lym (3 h) of 81.8% and an MCH (3 h) of 22 pg. For the same compound, the MCHC (3 h) was 33.6%, the MCV (3 h) was 65.5 fL and the Mono (3 h) was 8%. The Neu (3 h) was 9.6%, the PT (3 h) was 11.9 s and the Plat (3 h) was 114.1 x10_4/uL. For the same compound, the RBC (3 h) was 621 x10_4/ul, the Ret (3 h) was 9.1% and the WBC (3 h) was 100.3 x10_2/uL. The KIDNEY_L (3 h) was 1 g, the KIDNEY_R (3 h) was 1 g and the KIDNEY_TOTAL (3 h) was 2 g. The LIVER (3 h) was 9.9 g, the A/G (3 h) was 2.2 and the ALP (3 h) was 888.8 IU/L. It also gave an ALT (3 h) of 33.4 IU/L, an AST (3 h) of 64 IU/L and a BUN (3 h) of 12.8 mg/dL. The CRE (3 h) was 0.5 mg/dL, the Ca (3 h) was 10.8 mg/dL and the Cl (3 h) was 104.2 meq/L. It also gave a DBIL (3 h) of 0.006 mg/dL, a GLC (3 h) of 191.8 mg/dL and an IP (3 h) of 9.6 mg/dL. The K (3 h) was 4.6 meq/L, the LDH (3 h) was 93.2 IU/L and the Na (3 h) was 141.4 meq/L. The PL (3 h) was 146 mg/dL, the RALB (3 h) was 3.8 g/dL and the TBIL (3 h) was 0.3 mg/dL. The TC (3 h) was 79.4 mg/dL, the TG (3 h) was 59.8 mg/dL and the TP (3 h) was 5.5 g/dL. The gamma-GTP (3 h) was 1.4 IU/L, the TERMINAL_BW (6 h) was 210.7 g and the APTT (6 h) was 17.7 s. It also gave a Bas (6 h) of 0%, an Eos (6 h) of 0.8% and a Fbg (6 h) of 204.4 mg/dL. The Hb (6 h) was 13.8 g/dL, the Ht (6 h) was 41.4% and the Lym (6 h) was 84%. For the same compound, the MCH (6 h) was 21.7 pg, the MCHC (6 h) was 33.3% and the MCV (6 h) was 65.1 fL. For the same compound, the Mono (6 h) was 5%, the Neu (6 h) was 10.6% and the PT (6 h) was 12 s. The Plat (6 h) was 116.7 x10_4/uL, the RBC (6 h) was 636.4 x10_4/ul and the Ret (6 h) was 11.3%. The WBC (6 h) was 115.5 x10_2/uL, the KIDNEY_L (6 h) was 1 g and the KIDNEY_R (6 h) was 1 g. The KIDNEY_TOTAL (6 h) was 1.9 g, the LIVER (6 h) was 9.5 g and the A/G (6 h) was 2.2. The ALP (6 h) was 852.8 IU/L, the ALT (6 h) was 33 IU/L and the AST (6 h) was 62 IU/L. The BUN (6 h) was 9.8 mg/dL, the CRE (6 h) was 0.5 mg/dL and the Ca (6 h) was 10.6 mg/dL. It also gave a Cl (6 h) of 104.6 meq/L, a DBIL (6 h) of 0.046 mg/dL and a GLC (6 h) of 180.2 mg/dL. It also gave an IP (6 h) of 9.3 mg/dL, a K (6 h) of 4.6 meq/L and an LDH (6 h) of 81.2 IU/L. For the same compound, the Na (6 h) was 141.4 meq/L, the PL (6 h) was 126.6 mg/dL and the RALB (6 h) was 3.7 g/dL. The TBIL (6 h) was 0.4 mg/dL, the TC (6 h) was 71.4 mg/dL and the TG (6 h) was 57.6 mg/dL. The TP (6 h) was 5.4 g/dL, the gamma-GTP (6 h) was 1.4 IU/L and the TERMINAL_BW (9 h) was 208.6 g. For the same compound, the APTT (9 h) was 18 s, the Bas (9 h) was 0% and the Eos (9 h) was 1%. It also gave a Fbg (9 h) of 199 mg/dL, a Hb (9 h) of 13.6 g/dL and a Ht (9 h) of 40%. The Lym (9 h) was 77.6%, the MCH (9 h) was 22.4 pg and the MCHC (9 h) was 34%. For the same compound, the MCV (9 h) was 66 fL, the Mono (9 h) was 7.2% and the Neu (9 h) was 14.4%. It also gave a PT (9 h) of 12.3 s, a Plat (9 h) of 113.9 x10_4/uL and an RBC (9 h) of 606 x10_4/ul. The Ret (9 h) was 8.6%, the WBC (9 h) was 92 x10_2/uL and the KIDNEY_L (9 h) was 1 g. The KIDNEY_R (9 h) was 1 g, the KIDNEY_TOTAL (9 h) was 1.9 g and the LIVER (9 h) was 8.7 g. For the same compound, the A/G (9 h) was 2.3, the ALP (9 h) was 824.8 IU/L and the ALT (9 h) was 30.8 IU/L. The AST (9 h) was 62 IU/L, the BUN (9 h) was 9.8 mg/dL and the CRE (9 h) was 0.5 mg/dL. For the same compound, the Ca (9 h) was 10.3 mg/dL, the Cl (9 h) was 105.6 meq/L and the DBIL (9 h) was 0.062 mg/dL. For the same compound, the GLC (9 h) was 191.8 mg/dL, the IP (9 h) was 10.9 mg/dL and the K (9 h) was 4.5 meq/L. For the same compound, the LDH (9 h) was 67 IU/L, the Na (9 h) was 142.4 meq/L and the PL (9 h) was 128 mg/dL. For the same compound, the RALB (9 h) was 3.7 g/dL, the TBIL (9 h) was 0.3 mg/dL and the TC (9 h) was 71.2 mg/dL. It also gave a TG (9 h) of 32.8 mg/dL, a TP (9 h) of 5.3 g/dL and a gamma-GTP (9 h) of 0.8 IU/L. It also gave a TERMINAL_BW (24 h) of 224.5 g, an APTT (24 h) of 16.7 s and a Bas (24 h) of 0%. The Eos (24 h) was 1.2%, the Fbg (24 h) was 203.6 mg/dL and the Hb (24 h) was 13.3 g/dL. It also gave a Ht (24 h) of 39.4%, a Lym (24 h) of 75.8% and an MCH (24 h) of 22 pg. It also gave an MCHC (24 h) of 33.8%, an MCV (24 h) of 65.2 fL and a Mono (24 h) of 7.2%. It also gave a Neu (24 h) of 16.2%, a PT (24 h) of 11.8 s and a Plat (24 h) of 117.5 x10_4/uL. For the same compound, the RBC (24 h) was 604.6 x10_4/ul, the Ret (24 h) was 8.8% and the WBC (24 h) was 109.7 x10_2/uL. The KIDNEY_L (24 h) was 1 g, the KIDNEY_R (24 h) was 1 g and the KIDNEY_TOTAL (24 h) was 2 g. For the same compound, the LIVER (24 h) was 10.8 g, the A/G (24 h) was 2.1 and the ALP (24 h) was 1056.6 IU/L. The ALT (24 h) was 37.8 IU/L, the AST (24 h) was 66 IU/L and the BUN (24 h) was 17.6 mg/dL. The CRE (24 h) was 0.5 mg/dL, the Ca (24 h) was 10.7 mg/dL and the Cl (24 h) was 105.6 meq/L. For the same compound, the DBIL (24 h) was 0.008 mg/dL, the GLC (24 h) was 200.6 mg/dL and the IP (24 h) was 7.6 mg/dL. The K (24 h) was 4.8 meq/L, the LDH (24 h) was 76.2 IU/L and the Na (24 h) was 141.8 meq/L. The PL (24 h) was 149.8 mg/dL, the RALB (24 h) was 3.8 g/dL and the TBIL (24 h) was 0.3 mg/dL. It also gave a TC (24 h) of 76 mg/dL, a TG (24 h) of 109.6 mg/dL and a TP (24 h) of 5.6 g/dL. The gamma-GTP (24 h) was 1 IU/L.
